Measurements taken from ChEMBL document CHEMBL6109093, “Designing novel nucleoside inhibitors targeting the allosteric site of PBP2a: A strategic approach to overcome resistance in MRSA” (Bioorg Med Chem, 2025).
Values after ≈ are worked out from the molar mass of the structure shown. Active and inactive are the calls of the source. The calls are words filed in the database; no cut-off is given here.

Assays:
Escherichia coli = assay: Antibacterial activity against Escherichia coli ATCC 25922 measured after 24 hrs by turbidimetric assay; assay type: functional
Staphylococcus aureus [1] = assay: Antibacterial activity against methicillin-resistant Staphylococcus aureus Mu 50 measured after 24 hrs by turbidimetric assay; assay type: functional
Staphylococcus aureus [2] = assay: Antibacterial activity against methicillin-sensitive Staphylococcus aureus ATCC 29213 measured after 24 hrs by turbidimetric assay; assay type: functional
[3] = Cytotoxicity against human intestinal epithelial cells assessed as reduction in cell viability at 64 ug/ml measured after 24 hrs by CCK-8 assay; assay type: toxicity, cell-based; details: dose 64 µg/ml
[4] = Cytotoxicity against mouse BEND3 cells assessed as reduction in cell viability at 64 ug/ml measured after 24 hrs by CCK-8 assay; assay type: toxicity, cell-based; details: bend3, 24 h, dose 64 µg/ml
[5] = target: T1, MecA (Staphylococcus aureus) (UniProt Q7DHH4); assay: Inhibition of PBP2a in methicillin-resistant Staphylococcus aureus Mu 50 assessed as blurred cell wall boundaries at 16 ug/ml measured after 12 hrs by transmission electron microscopy; details: dose 16.0 µg/ml
T1 sequence (whole entry): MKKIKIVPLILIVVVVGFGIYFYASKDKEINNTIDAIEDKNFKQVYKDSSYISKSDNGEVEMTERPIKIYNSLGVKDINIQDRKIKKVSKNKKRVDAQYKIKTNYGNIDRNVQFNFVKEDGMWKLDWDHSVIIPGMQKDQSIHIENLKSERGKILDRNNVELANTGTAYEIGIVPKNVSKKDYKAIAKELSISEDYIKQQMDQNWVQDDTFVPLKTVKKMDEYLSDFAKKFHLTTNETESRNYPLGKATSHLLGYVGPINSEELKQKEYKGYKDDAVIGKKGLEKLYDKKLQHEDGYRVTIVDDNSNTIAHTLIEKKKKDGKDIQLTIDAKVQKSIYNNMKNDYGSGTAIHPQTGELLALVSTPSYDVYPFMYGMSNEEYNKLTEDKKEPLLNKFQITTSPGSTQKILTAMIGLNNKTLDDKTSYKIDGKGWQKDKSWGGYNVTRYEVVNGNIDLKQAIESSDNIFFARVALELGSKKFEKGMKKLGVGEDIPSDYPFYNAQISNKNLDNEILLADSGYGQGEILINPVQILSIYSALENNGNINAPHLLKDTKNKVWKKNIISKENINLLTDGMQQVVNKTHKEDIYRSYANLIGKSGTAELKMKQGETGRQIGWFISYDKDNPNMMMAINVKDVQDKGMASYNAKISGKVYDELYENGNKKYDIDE

Staphylococcus aureus [6] = assay: Resistance development in methicillin-resistant Staphylococcus aureus Mu 50 assessed as MIC after 9 passages by broth dilution method; assay type: functional
Staphylococcus aureus [7] = assay: Bactericidal activity against methicillin-resistant Staphylococcus aureus Mu 50 assessed as reduction in colony formation measured after 2 to 24 hrs by time-kill assay; assay type: functional, organism-based; details: dose 8-32 µg/ml, time 2-24 hrs
Staphylococcus aureus [8] = assay: Bactericidal activity against methicillin-resistant Staphylococcus aureus Mu 50 assessed as reduction in colony formation at 8 to 32 ug/ml measured after 3 hrs by time-kill assay; assay type: functional, organism-based; details: dose 8-32 µg/ml
Staphylococcus aureus [9] = assay: Antibacterial activity against methicillin-resistant Staphylococcus aureus Mu 50 at 4 to 32 ug/ml measured at 1 hr interval for 24 hrs; assay type: functional, organism-based; details: dose 4-32 µg/ml
[10] = target: T1, MecA (Staphylococcus aureus); assay: Inhibition of PBP2a in methicillin-resistant Staphylococcus aureus Mu 50 assessed as abnormal cell division at 16 ug/ml measured after 12 hrs by transmission electron microscopy; details: dose 16.0 µg/ml
Staphylococcus aureus [11] = assay: Antibacterial activity against methicillin-sensitive Staphylococcus aureus ATCC 29213 at 4 to 32 ug/ml measured at 1 hr interval for 24 hrs; assay type: functional, organism-based; details: dose 4-32 µg/ml
Staphylococcus aureus [12] = assay: Synergistic antibacterial activity against methicillin-resistant Staphylococcus aureus Mu 50 at 16 to 32 ug/ml measured at 1 hr interval for 24 hrs in presence of oxacillin; assay type: functional, organism-based; details: dose 16-32 µg/ml
Staphylococcus aureus [13] = assay: Synergistic antibacterial activity against methicillin-resistant Staphylococcus aureus Mu 50 at 64 to 128 ug/ml measured at 1 hr interval for 24 hrs in presence of oxacillin; assay type: functional, organism-based; details: dose 64-128 µg/ml
[14] = target: T1, MecA (Staphylococcus aureus); assay: Inhibition of PBP2a in methicillin-resistant Staphylococcus aureus Mu 50 assessed as disruption of bacterial cell wall integrity by measuring release of intracellular contents at 64 ug/ml measured after 12 hrs by transmission electron microscopy; assay type: cell-based; details: dose 64.0 µg/ml
Staphylococcus aureus [15] = assay: Resistance development in methicillin-resistant Staphylococcus aureus Mu 50 assessed as fold change in MIC after and before 6 passages by broth dilution method; assay type: functional

Nc1ncnc2c1c(C#Cc1cccnc1)cn2[C@@H]1O[C@H](CSCc2cccc(C(=O)O)c2)[C@@H](O)[C@H]1O
MIC (Escherichia coli): > 128 µg/mL
MIC (Staphylococcus aureus [1]): > 128 µg/mL
MIC (Staphylococcus aureus [2]): > 128 µg/mL

Nc1ncnc2c1ncn2[C@@H]1O[C@H](CSCc2cc(C(=O)O)no2)[C@@H](O)[C@H]1O
MIC (Escherichia coli): > 128 µg/mL
MIC (Staphylococcus aureus [1]): > 128 µg/mL
MIC (Staphylococcus aureus [2]): > 128 µg/mL

Nc1ncnc2c1ncn2[C@@H]1O[C@H](CSCc2cccc(C(=O)O)c2)[C@@H](O)[C@H]1O
MIC (Escherichia coli): > 128 µg/mL
MIC (Staphylococcus aureus [1]): > 128 µg/mL
MIC (Staphylococcus aureus [2]): > 128 µg/mL

Nc1ncnc2c1ncn2[C@@H]1O[C@H](CSCc2cncc(C(=O)O)n2)[C@@H](O)[C@H]1O
MIC (Escherichia coli): > 128 µg/mL
MIC (Staphylococcus aureus [1]): > 128 µg/mL
MIC (Staphylococcus aureus [2]): > 128 µg/mL

Nc1ncnc2c1c(C#Cc1cccc(F)c1)cn2[C@@H]1O[C@H](CSCc2cccc(C(=O)O)c2)[C@@H](O)[C@H]1O
MIC (Escherichia coli): > 128 µg/mL
MIC (Staphylococcus aureus [1]): > 128 µg/mL
MIC (Staphylococcus aureus [2]): > 128 µg/mL

Nc1ncnc2c1c(C#Cc1ccccc1)cn2[C@@H]1O[C@H](CSCc2cccc(C(=O)O)c2)[C@@H](O)[C@H]1O
MIC (Escherichia coli): > 128 µg/mL
MIC (Staphylococcus aureus [1]): > 128 µg/mL
MIC (Staphylococcus aureus [2]): > 128 µg/mL

N#Cc1cccc(CSC[C@H]2O[C@@H](n3cnc4c(N)ncnc43)[C@H](O)[C@@H]2O)c1
MIC (Escherichia coli): > 128 µg/mL
MIC (Staphylococcus aureus [1]): > 128 µg/mL
MIC (Staphylococcus aureus [2]): > 128 µg/mL

Nc1ncnc2c1c(C#Cc1ccc3ccccc3c1)cn2[C@@H]1O[C@H](CSCc2cccc(C(=O)O)c2)[C@@H](O)[C@H]1O
MIC (Escherichia coli): > 128 µg/mL
MIC (Staphylococcus aureus [1]): 32 µg/mL (≈ 56.5 µM)
MIC (Staphylococcus aureus [2]): > 128 µg/mL

Nc1ncnc2c1c(C#Cc1ccc3sccc3c1)cn2[C@@H]1O[C@H](CSCc2cccc(C(=O)O)c2)[C@@H](O)[C@H]1O
Activity [3]: Non-toxic
MIC (Escherichia coli): > 128 µg/mL
MIC (Staphylococcus aureus [1]): 16 µg/mL (≈ 27.9 µM)
Activity [4]: Non-toxic
inhibition [5]: Active; Significantly Inhibits The Cross-Linking Of Peptidoglycan Substrates By Pbp2A
MIC (Staphylococcus aureus [6]): 64 µg/mL (≈ 112 µM)
Activity (Staphylococcus aureus [7]): Dose-dependent-effect
MIC (Staphylococcus aureus [2]): > 128 µg/mL
Activity (Staphylococcus aureus [8]): Active; Significant Reduction Observed
Activity (Staphylococcus aureus [9]): Active; Significant Inhibition Observed
inhibition [10]: Active; Significantly Inhibits The Cross-Linking Of Peptidoglycan Substrates By Pbp2A
Activity (Staphylococcus aureus [11]): inactive
Activity (Staphylococcus aureus [12]): Active; Enhanced The Inhibitory Effect Of Oxacillin
Activity (Staphylococcus aureus [13]): Not active; Decreased The Activity Of Oxacillin

Nc1ncnc2c1ncn2[C@@H]1O[C@H](CSCc2cccc(C(=O)O)n2)[C@@H](O)[C@H]1O
MIC (Escherichia coli): > 128 µg/mL
MIC (Staphylococcus aureus [1]): > 128 µg/mL
MIC (Staphylococcus aureus [2]): > 128 µg/mL

Nc1ncnc2c1c(C#Cc1cccc([N+](=O)[O-])c1)cn2[C@@H]1O[C@H](CSCc2cccc(C(=O)O)c2)[C@@H](O)[C@H]1O
MIC (Escherichia coli): > 128 µg/mL
MIC (Staphylococcus aureus [1]): > 128 µg/mL
MIC (Staphylococcus aureus [2]): > 128 µg/mL

Cc1onc(-c2ccccc2)c1C(=O)N[C@@H]1C(=O)N2[C@@H]1SC(C)(C)[C@@H]2C(=O)O [OXACILLIN]
inhibition [14]: Active
MIC (Staphylococcus aureus [1]): 64 µg/mL (≈ 159 µM)

CCO/N=C(\C(=O)N[C@@H]1C(=O)N2C(C(=O)[O-])=C(Sc3nc(-c4cc[n+](C)cc4)cs3)CS[C@H]12)c1nsc(NP(=O)(O)O)n1 [CEFTAROLINE FOSAMIL]
MIC (Staphylococcus aureus [1]): 32 µg/mL (≈ 46.7 µM)
MIC (Staphylococcus aureus [6]): 128 µg/mL (≈ 187 µM)
fold change (FC) (Staphylococcus aureus [15]): 2
